US6818228B1 (priority 1996, dated 2004)

How the values were obtained:
[1] = B.E.T.
[2] = helium displacement
[3] = Bulk density (tapped cylinder); details: nearly dry material before granulation

Row | SMILES | surface area [1] | true density [2] | density (bulk) [3] | surface area as fraction of that of commercial calcium citrate tetrahydrate [1]
1 | O.O.O.O.O=C([O-])CC(O)(CC(=O)[O-])C(=O)[O-].O=C([O-])CC(O)(CC(=O)[O-])C(=O)[O-].[Ca+2].[Ca+2].[Ca+2] [Pfizer calcium citrate tetrahydrate, calcium citrate tetrahydrate] | about 10 m^2/g | about 2.0 g/cc |  | 
2 | O=C([O-])CC(O)(CC(=O)[O-])C(=O)[O-].O=C([O-])CC(O)(CC(=O)[O-])C(=O)[O-].[Ca+2].[Ca+2].[Ca+2] [calcium citrate] |  |  | 1.1-1.2 g/cc | 1/10
